The source of these data is paper PMC10780244, “Antileishmanial Effect of 1,5- and 1,8-Substituted Fused Naphthyridines” (Molecules, 2023).

Data set [1] concerns axenic iRFP-L. infantum amastigotes from bone marrow cells. As to the kind of experiment: Axenic amastigote viability assay (iRFP fluorescence, first screening).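 Also: compounds not inhibiting growth at the cut-off were deemed poorly active.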 The following applies: Leishmania infantum, Bone marrow cell, cut-off 25 µM, 72 h, read-out: Axenic Amastigotes (concentration with inhibition). The class given is cell-based. As for the experimental part:
The 1,5- and 1,8-fused naphthyridine derivatives were evaluated as antileishmanial agents in assays using two forms of L. infantum amastigotes: axenic amastigotes recovered from bone marrow cells of infected BALB/c mice and intramacrophagic amastigotes obtained from splenic explants of the same subjects. The L. infantum strain used is a genetically modified strain previously engineered by our group to constitutively express the infrared protein iRFP from Rhodopseudomonas palustris bacteriophytochrome (iRFP L. infantum). This strain allows monitoring the viability of both forms of the parasite by quantifying the fluorescence emitted at 700 nm by the iRFP protein produced by living amastigotes.
Amastigotes obtained from mouse bone marrow cells were used to perform a first screening with the complete series of fused 1,5- and 1,8-naphthyridines. […] The toxicity of these selected compounds was assessed in non-infected splenic cells and the cytotoxic concentration (CC50) value obtained was used to calculate the selective index (SI). The oral tolerability of these same compounds was tested by calculating the viability of murine intestinal organoids exposed to two concentrations (50 and 25 µM).
To obtain iRFP-L. infantum axenic amastigotes, femur and tibia were carefully cut at both ends, and marrow cells were removed by passing PBS through the medullary cavity with a 29G needle. The bone marrow cell suspension was filtered through a 100 µm cell strainer and centrifuged at 3500× g for 10 min at room temperature. After centrifugation, cells were resuspended in amastigote culture medium: 15 mM KCl; 136 mM KH2PO4; 10 mM K2HPO4·3H2O; 0.5 mM MgSO4. 7H2O; 24 mM NaHCO3; 22 mM glucose; 1 mM glutamine, 1xRPMI 1640 vitamin mix (Sigma-Aldrich, Merck, Darmstadt, Germany), 10 mM folic acid, 100 mM adenosine, 1xRPMI amino acid mix (Sigma-Aldrich, Merck, Darmstadt, Germany), 5 mg/mL hemin, antibiotic cocktail, 25 mM MES and 10% FBS, and incubated at 37 °C.
To test the antileishmanial effect of naphthyridines on axenic amastigotes, 40 μL of a suspension containing 3 × 10^4 iRFP-L. infantum parasites per well were incubated with another 40 μL of the drugs dilutions in amastigote culture medium with 7.5% FBS. Incubations were performed in 384-well black microtiter plates with an optical bottom at 37 °C and 5% CO2 for 72 h. Solutions of 0.1% (v/v) DMSO and 10 μM AMB were used as negative and positive controls, respectively. The assays were performed by triplicate.
The viability of axenic and intramacrophage amastigotes was calculated measuring the fluorescence emitted at 700 nm by the iRFP protein from live parasites and recorded by an Odyssey infrared imaging system (Li-Cor, NE, USA). The fluorescence emitted by the negative control wells was considered 100% viability, whereas the fluorescence emitted by the positive control wells, was adjusted to 0% viability.

Data set [2] in a line: Cytotoxicity in uninfected murine splenic cells (alamarBlue). The class given is cell-based, mouse. The settings on record: mouse; uninfected splenic cells, 72 h, alamarBlue; read-out: Mouse Splenic Macrophages CC50. As for the experimental part:
(§1) Amastigotes obtained from mouse bone marrow cells were used to perform a first screening with the complete series of fused 1,5- and 1,8-naphthyridines. […] The toxicity of these selected compounds was assessed in non-infected splenic cells and the cytotoxic concentration (CC50) value obtained was used to calculate the selective index (SI). The oral tolerability of these same compounds was tested by calculating the viability of murine intestinal organoids exposed to two concentrations (50 and 25 µM). In order to assess the in vitro safety of the naphthyridines, cytotoxicity assays were carried out in ex vivo splenic explants from uninfected mice, which were prepared as previously described to obtain intramacrophagic amastigotes. Cells were seeded at a density of 1 × 10^6 cells per well in 96-well plates containing the prediluted compounds and incubated at 37 °C and 5% CO2 during 72 h. AlamarBlue assay (Invitrogen, Fisher Scientific, Waltham, MA, USA) was used to estimate cell viability following manufacturer’s recommendations. The assays were performed by triplicate. Absorbance of viable cells vs. compound concentrations were fitted by nonlinear analysis using the Sigma Plot 10.1 statistical package to calculate the cytotoxic concentration 50 (CC50) values. Selectivity index (SI) was calculated as the ratio between CC50 and the EC50 values of intramacrophagic amastigotes.
For orientation: Resazurin is reduced to fluorescent resorufin, in cell work by metabolically active cells.

Data set [3] concerns mouse splenic macrophages. The description is as above. The settings on record: summary in discussion. The class given is cell-based. As for the experimental part: as §1
Data set [4] concerns leishmanial DNA topoisomerase IB (LdTopIB). As to the kind of experiment: Relaxation of supercoiled plasmid DNA assay. The class given is biochemical, Leishmania. The settings on record: 100 μM of compounds, 1 min at 37 °C, in words. As for the experimental part:
page 2: DNA DMSO 6b8a8b8c9b10b11a13a13b14a7c8d15b Relaxationof supercoiled plasmid DNA assay. Each reaction contains one unit of purified leishmanial DNA topisomeraseIB enzyme (LdTopIB), 100 μM ofcompounds, 0.5μg of supercoiled […], 10 mM Tris-HCl buffer pH 7.5, 5 mM MgCl 2, 0.1 mM EDTA, 15 μg/mL bovine serum albumin, 150 mM KCl. Reaction mixtures were incubated 1 min at 37 °C and stopped by the addition of 4 μL loading buffer (5% sarkosyl, 0.12% bromophenol blue, 25% glycerol). The topoisomerswere resolved in 1% agarose gels by electrophoresis in 0.1 M Tris borate EDTA buffer (pH 8.0) at 2 V/cm for 16 h and visualized with UV illumination after ethidium bromide (0.5μg/mL) staining. […]

In data set [5] the test system is recombinant human DNA topoisomerase IB (hTopIB). On the set-up: method as in PMID 31229877, PMID 32279049, PMID 33962152; dose or concentration left out as unconfirmed. The following applies: cited from earlier work.
The subject of data set [6] is two cancer cell lines. On the set-up: method as in PMID 31229877, PMID 32279049, PMID 33962152. The following applies: cited from earlier work.

For orientation: CC50 means the concentration at which the toxic effect on the cells reaches its halfway point.

Some results are limits rather than exact numbers.

For the compound `Cc1ccc(S(=O)(=O)N2CC3C(Nc4ncccc4C3c3ccccc3)c3ccccc32)cc1` (stereo not shown) [Compound 14a], the minimal effective concentration in data set [1] was less than 25 µM. Moreover, the CC50 at 72 h in data set [2] was 27.2 ± 1.55 µM. The “toxicity (in words)” value in data set [3] was “significant toxicity”. For the same compound, in data set [4], the LdTopIB inhibitory activity result is “did not show leishmanial DNA topoisomerase IB (LdTopIB) inhibitory activity”. Further, the “inhibitory effect on DNA relaxation activity of hTopIB” value (shortened to “inhibitory effect”) in data set [5] is “had an inhibitory effect on DNA relaxation activity”. Besides, the “cytotoxic effects on two cancer cell lines (concentration range)” value (“cytotoxic effects” for short) in data set [6] is 1 to 15 µM.
Turning to `O=c1oc2ccccc2c2nc3ncc(Br)cc3c(-c3ccccc3)c12` [Compound 13b], the minimal effective concentration in data set [1] is less than 25 µM. Besides, the CC50 at 72 h in data set [2] is greater than 50 µM.
With `Cc1ccc(S(=O)(=O)N2CC3C(Nc4cccnc4[C@H]3c3ccccc3)c3ccccc32)cc1` (stereo partly shown) [Compound 8a], in data set [1], the minimal effective concentration was less than 25 µM. The CC50 at 72 h in data set [2] is 45 ± 3.91 µM.
The corresponding values for `COc1ccc2c(n1)[C@@H](c1ccccc1)C1CN(S(=O)(=O)c3ccc(C)cc3)c3ccccc3C1N2` (stereo partly shown) [Compound 8c] are less than 25 µM and greater than 100 µM.
The corresponding values for `Cc1ccc(S(=O)(=O)N2CC3C(Nc4ccc(Br)nc4[C@H]3c3ccccc3)c3ccccc32)cc1` (stereo partly shown) [Compound 8d] are less than 25 µM and greater than 50 µM.
As for `O=c1oc2ccccc2c2nc3ncccc3c(-c3ccccc3)c12` [Compound 13a], the minimal effective concentration in data set [1] is less than 25 µM. The CC50 at 72 h in data set [2] turned out to be 34.6 ± 1.79 µM. In data set [3], the “toxicity (in words)” value is listed as “significant toxicity”. Also, in data set [4], the LdTopIB inhibitory activity entry is given as “did not show leishmanial DNA topoisomerase IB (LdTopIB) inhibitory activity”. Also, the “inhibitory effect” value in data set [5] was “had an inhibitory effect on DNA relaxation activity”. Besides, in data set [6], the “cytotoxic effects” value was 1 to 15 µM.
Take `O=C1Oc2ccccc2C2Nc3ccc(Br)nc3[C@@H](c3ccccc3)C12` (stereo partly shown) [Compound 6b]: in data set [1], the minimal effective concentration is less than 25 µM. The CC50 at 72 h in data set [2] is 55.7 ± 6.42 µM.
On to `Cc1ccc(S(=O)(=O)N2Cc3c(nc4ncc(Br)cc4c3-c3ccccc3)-c3ccccc32)cc1` [Compound 15b], for which the minimal effective concentration in data set [1] was less than 25 µM. Further, the CC50 at 72 h in data set [2] was 24.6 ± 3.59 µM. Besides, in data set [3], the “toxicity (in words)” value is reported as “significant toxicity”. The LdTopIB inhibitory activity entry in data set [4] was “did not show leishmanial DNA topoisomerase IB (LdTopIB) inhibitory activity”. The “inhibitory effect” value in data set [5] is recorded as “had an inhibitory effect on DNA relaxation activity”. Also, in data set [6], the “cytotoxic effects” value was 1 to 15 µM.
In the case of `Fc1ccc2c(c1)C1Nc3ncccc3[C@@H](c3ccccc3)C1CO2` (stereo partly shown) [Compound 10b], in data set [1], the minimal effective concentration was less than 25 µM. For the same compound, the CC50 at 72 h in data set [2] turned out to be 50.7 ± 0.99 µM.
The corresponding values for `c1ccc(-c2c3c(nc4ncccc24)-c2ccccc2OC3)cc1` [Compound 11a] are less than 25 µM and greater than 100 µM.
As to `COc1ccc2nc3c(c(-c4ccccc4)c2n1)c(=O)oc1ccccc13` [Compound 7c], the minimal effective concentration in data set [1] is less than 25 µM. For the same compound, the CC50 at 72 h in data set [2] came to 97.7 ± 1.77 µM.
